Where “and” joins values, the source holds several entries; their conditions need not be identical. Equal entries are not always repeated. Where two headings read alike, the source gives them in different places.
Assay: Pharmacokinetics after 3 mg/kg IV administration, plasma
Format: in vivo, CD1 mice
Description: Protocol for pharmacokinetic and tissue distribution studies. The pharmacokinetics of the compounds was studied in CD1 mice after intravenous (IV) and oral gavage (PO) administration. Mouse PK studies was conducted at 3 mg/kg (IV) and 8 mg/kg (PO). Plasma samples obtained from dosed animals, at ten time points, including 5, 15 and 30 minutes and 1, 1.5, 2, 4, 6, 8 and 24 hr post-dose for processing to plasma, were prepared for analysis by means of a single step protein precipitation technique, by adding 200 μL of acetonitrile containing an IS mixture (labetalol, imipramine and diclofenac) to 50 μL aliquots of individual subject samples. Samples were mixed by vortex for homogeneity and then subjected to centrifugation at 4000 rpm for 10 min. The supernatant (200 μL) was collected and injected into the LC-MS/MS for analysis. Pharmacokinetic parameters will be calculated using established non-compartmental methods. The liver distribution of the compounds was studied in the PO group and liver tissues were collected at each time point after PO administration. Accurately weighed whole liver tissues were collected in a 50 mL tube, and 3 volumes per weight of water will be added. Tissue samples were homogenized and 50 μL of the homogenates will be processed along with plasma samples as described above.

[1] = CD1, mouse, plasma, iv, 3 mg/kg, individual mice
[2] = CD1, mouse, plasma, iv, 3 mg/kg, mean

In the case of `COc1cc2c(cc1OCCCCCCC(=O)O)C[C@@H](C(C)C)n1cc(C(=O)O)c(=O)cc1-2` [Example 6, (S)-9-((6-carboxyhexyl)oxy)-6-isopropyl-10-methoxy-2-oxo-6,7-dihydro-2H-pyrido[2,1-a]isoquinoline-3-carboxylic acid], the Plasma concentration (5 min, individual mice) is reported as 979 ng/mL and 689 ng/mL, the Plasma concentration (0.25 h, individual mice) is reported as 103 ng/mL and 73.0 ng/mL and the Plasma concentration (0.5 h, individual mice) is reported as 31.7 ng/mL and 24.9 ng/mL. The Plasma concentration (1 h, individual mice) was 8.52 ng/mL and 6.79 ng/mL, the Plasma concentration (2 h, individual mice) was 5.61 ng/mL and 5.51 ng/mL and 2.14 ng/mL and the Plasma concentration (4 h, individual mice) was 1.69 ng/mL and BLOQ. For the same compound, the Plasma concentration (8 h, individual mice) was “BLOQ”, the Plasma concentration (24 h, individual mice) was “BLOQ” and the concentration at 5 min (CD1, mouse, plasma, intravenous, 3 mg/kg, 5 min, individual mice, read-out: Plasma concentration) was 817 ng/mL. For the same compound, the concentration at 5 min (CD1, mouse, plasma, intravenous, 3 mg/kg, 5 min, mean, read-out: Mean plasma concentration) was 828 ng/mL, the concentration at 0.25 h (CD1, mouse, plasma, intravenous, 3 mg/kg, 0.25 h, individual mice, read-out: Plasma concentration) was 82.3 ng/mL and the concentration at 0.25 h (CD1, mouse, plasma, intravenous, 3 mg/kg, 0.25 h, mean, read-out: Mean plasma concentration) was 86 ng/mL. It also gave a concentration at 0.5 h (CD1, mouse, plasma, intravenous, 3 mg/kg, 0.5 h, individual mice, read-out: Plasma concentration) of 32.8 ng/mL, a concentration at 0.5 h (CD1, mouse, plasma, intravenous, 3 mg/kg, 0.5 h, mean, read-out: Mean plasma concentration) of 29.8 ng/mL and a concentration at 1 h (CD1, mouse, plasma, intravenous, 3 mg/kg, 1 h, individual mice, read-out: Plasma concentration) of 11.4 ng/mL. The concentration at 1 h (CD1, mouse, plasma, intravenous, 3 mg/kg, 1 h, mean, read-out: Mean plasma concentration) was 8.9 ng/mL, the concentration at 2 h (CD1, mouse, plasma, intravenous, 3 mg/kg, 2 h, mean) was 4.42 ng/mL and the concentration at 4 h (CD1, mouse, plasma, intravenous, 3 mg/kg, 4 h, individual mice, read-out: Plasma concentration) was 1.85 ng/mL. The concentration at 4 h (CD1, mouse, plasma, intravenous, 3 mg/kg, 4 h, mean, read-out: Mean plasma concentration) was 1.77 ng/mL, the concentration at 8 h (CD1, mouse, plasma, intravenous, 3 mg/kg, 8 h, individual mice) was 1.08 ng/mL and the AUC(0-inf) [1] was 268 ng·h/mL. The AUC(0-t) [1] was 263 ng·h/mL, the C0 (CD1, mouse, plasma, iv, 3 mg/kg, individual mice, read-out: C0) was 2570 ng/mL and the AUC(0-inf) [2] was 258 ng·h/mL. The AUC(0-t) [2] was 255 ng·h/mL, the half-life [2] was 88.8 min and the C0 (CD1, mouse, plasma, iv, 3 mg/kg, mean, read-out: C0) was 2570 ng/mL. The MRT inf (CD1, mouse, plasma, iv, 3 mg/kg, mean, read-out: MRTInf —obs) was 17.2 min, the Vd (CD1, mouse, plasma, iv, 3 mg/kg, mean, read-out: Vss —obs) was 3.26 L/kg and the AUCInf (individual mice) was 301 ng·h/mL and 206 ng·h/mL. For the same compound, the AUClast (individual mice) was 298 ng·h/mL and 205 ng·h/mL, the “AUC—% Extrap_obs” value (individual mice) was 1.59% and 1.03% and 0.662% and the C0 (individual mice) was 3016 ng/mL and 2115 ng/mL. The Cl_obs (individual mice) was 187 mL/min/kg and 166 mL/min/kg and 242 mL/min/kg, the “MRTInf —obs” value (individual mice) was 30.1 min and 13.8 min and 7.68 min and the T1/2 (individual mice) was 163 min and 76.2 min and 26.5 min. For the same compound, the “Vss —obs” value (individual mice) was 5.63 L/kg and 2.29 L/kg and 1.87 L/kg, the AUClast/D (mean) was 85.1 kg·ng·h/mL/mg and the “AUC—% Extrap_obs” value (mean) was 1.09%. The Cl_obs (mean) was 198 mL/min/kg.

— patent US20250296929A1, “NOVEL HEPATOSELECTIVE POLYADENYLATING POLYMERASES INHIBITORS AND THEIR METHOD OF USE” (BARUCH S. BLUMBERG INSTITUTE, priority 2021, published 2025)
